Results on six molecules are retold here after patent publication US20140094434A1, “AMINO ACID COMPOSITION” (AJINOMOTO CO., INC, priority 2011, published 2014).

The subject of one experiment is isolated rat hepatocytes. The settings on record: Biochem. J., 1991, 273: 57-62; cited from earlier work.
The conditions of experiment [1]: humans; ingestion of proline; Metabolism, 2004, 53(2): 241-246; cited from earlier work.
In another experiment the test system is Male C57BL/6J mice. Put plainly: Spontaneous motor activity after 90 minutes treadmill running exercise. Format: in vivo, mouse. The settings on record: Example 5, FIG. 8; oral dextrin 2 g/kg; measured for 3 hours after 90 minutes running; vs water administration. How it is done:
Male C57BL/6J mice were habituated to a running exercise using a treadmill, and subjected to a test. The mice were fasted overnight, and orally administered (1) dextrin 2 g/kg, or (2) dextrin 1 g/kg and L-alanine (Ala) 1 g/kg. From 15 minutes after the administration, a 90 minutes running exercise was loaded at a rate of 26 m/minute using the treadmill. After exercise loading, the mice were transferred into a cage, and the motor activity was measured using a spontaneous motor activity monitor (NS-AS01: Neuroscience Inc.) for 3 hours (dextrin and dextrin+Ala in FIG. 8). As a control, the mice administered the above-mentioned (1) or (2) were administered water instead of (1) or (2), and the spontaneous motor activity was measured in the same manner (dextrin (water administration) and dextrin+Ala (water administration) in FIG. 8). In addition, the spontaneous motor activity of mice in a resting state after fasting overnight and free of the exercise loading was measured for 3 hours in the same manner (in rest in FIG. 8).

For `C[C@H](N)C(=O)O` [alanine], in the experiment on isolated rat hepatocytes, the glycogen synthesis entry is “enhance”.

For `NC(=O)C[C@H](N)C(=O)O` [asparagine], in the experiment on isolated rat hepatocytes, the glycogen synthesis result is reported as “enhance”.

Regarding `NC(=O)CC[C@H](N)C(=O)O` [glutamine], the glycogen synthesis result in the experiment with isolated rat hepatocytes is recorded as “enhance”.

Regarding `N[C@@H](Cc1c[nH]cn1)C(=O)O` [histidine], in the experiment on isolated rat hepatocytes, the glycogen synthesis result is reported as “enhance”.

Consider `O=C(O)[C@@H]1CCCN1` [proline], for which the glycogen synthesis result in the experiment on isolated rat hepatocytes was “enhance”. Moreover, the “increase of blood glucose level after glucose ingestion” value in experiment [1] was “suppresses”.

Take dextrin: in the experiment on Male C57BL/6J mice, the “spontaneous motor activity after running exercise loading” value is “increased”.
